Results as given in US8343934B2, “Diverse lead compound autotaxin inhibitors” (University of Memphis, priority 2009, dated 2013).
Where a SMILES comes first, the peptide text is derived from it. [ ]: non-standard residue; d: D form. Phe(4-Cl) = N[CH](Cc1ccc(Cl)cc1)C(=O)O; 3Pal = N[CH](Cc1cccnc1)C(=O)O

Target: T1, ATX (Homo sapiens, UniProt Q13822)
T1 construct: conditioned serum-free medium (CCM) from MDA-MB-435 cells as the source of ATX; endogenous in cells; host or cells: MDA-MB-435 cells (about 10x concentrated conditioned serum-free medium)
Experiment: ATX inhibition assay (FS-3 substrate)
Format: biochemical
Details: for % Response: preliminary screen, FS-3 hydrolysis at one hour, normalized to vehicle control, mean±S.D., same values given at 10 μM in Table 5
Method: ATX inhibition was assayed using the substrate FS-3 (Echelon Biosciences, Inc., Salt Lake City, Utah, USA). The FS-3 assay used ˜10 times concentrated conditioned serum-free medium (CCM) from MDA-MB-435 cells as the source of ATX, while CCM comprised one-third of the total volume. The final volume for FS-3 was comprised of the substrate at varying concentrations and 30 μM charcoal-stripped fatty acid free BSA (Sigma Aldrich) in assay buffer (1 mM each CaCl2 and MgCl2, 5 mM KCl, 140 mM NaCl, 50 mM Tris pH 8.0).
All assays were performed in 96-well plates with data read at 1 minute intervals by a Synergy2 system (BioTek, Winooski, Vt.). The fluorescence produced upon the hydrolysis of FS-3 was monitored using an excitation wavelength of 485 nm and an emission wavelength of 528 nm at 37° C. (Ferguson et al., 2006). […] All readings were normalized to vehicle control after subtraction of fluorescence in the absence of CCM. Data are shown as the mean±S.D. of at least three wells.

[1] = Calculated IC50 data for the 30 active compounds, FS-3 substrate

**Q.** Which “% Response” value does the source give for `Cc1ccc(Nc2ccc(Nc3ccc(C)cc3S(=O)(=O)[O-])c3c2C(=O)c2ccccc2C3=O)c(S(=O)(=O)[O-])c1.[Na+].[Na+]` [compound 7795] here?
**A.** The value was 99 ± 5.0%.

**Q.** With `NC(=N\N=C/c1ccccc1S(=O)(=O)O)/C(N)=N\N=C/c1ccccc1S(=O)(=O)O.[Na+]` [compound 47471] as the compound, how does the “% Response” value read?
**A.** Its value is 95 ± 3.0%.

**Q.** How did the “% Response” value turn out when `O=S(=O)(O)c1cc(O)c2ccc(Nc3ccc4c(O)cc(S(=O)(=O)O)cc4c3)cc2c1` [compound 1698] was run?
**A.** Its value is 89 ± 5.1%.

**Q.** With `Cc1cc(N=Nc2ccc(S(=O)(=O)[O-])cc2)c(N)c(N=Nc2ccc(S(=O)(=O)[O-])cc2)c1N.[Na+].[Na+]` [compound 65540] as the compound, how does the “% Response” value read?
**A.** The value was 71 ± 4.4%.

**Q.** `Nc1ccc2cc(S(=O)(=O)O)cc(O)c2c1N=Nc1ccc(NC(=O)Nc2ccc(N=Nc3c(N)ccc4cc(S(=O)(=O)O)cc(O)c34)c(S(=O)(=O)O)c2)cc1S(=O)(=O)O` [compound 11244] was tested. Which “% Response” value did it give?
**A.** The value was 78 ± 7.0%.

**Q.** For `O=C(Nc1ccc2c(O)c(N=Nc3ccccc3)c(S(=O)(=O)[O-])cc2c1)Nc1ccc2c(O)c(N=Nc3ccccc3)c(S(=O)(=O)[O-])cc2c1.[Na+].[Na+]` [compound 16223], which “% Response” value is on record?
**A.** The value was 77 ± 9.8%.

**Q.** With `COc1ccccc1N=Nc1c(S(=O)(=O)[O-])cc2cc(NC(=O)Nc3ccc4c(O)c(N=Nc5ccc(S(=O)(=O)[O-])cc5C)c(S(=O)(=O)[O-])cc4c3)ccc2c1O.[Na+].[Na+].[Na+]` [compound 47764] as the compound, how does the IC50 [1] read?
**A.** Its IC50 is 18.2 µM.

**Q.** And the “% Response” value?
**A.** Its value is 41 ± 4.3%.

**Q.** Which “% Response” value does the source give for `Cc1ccc(Nc2cccc3c2C(=O)c2cccc(Nc4ccc(C)c(S(=O)(=O)O)c4)c2C3=O)cc1S(=O)(=O)O` [compound 7804] here?
**A.** The value was 96 ± 6.4%.

**Q.** With `Cc1ccccc1N=Nc1ccc(N=Nc2c(S(=O)(=O)O)cc3cc(S(=O)(=O)O)c(N=Nc4ccc([N+](=O)[O-])cc4)c(N)c3c2O)c(C)c1.[Na+]` [compound 65836] as the compound, how does the “% Response” value read?
**A.** Its value is 71 ± 4.6%.

**Q.** `Nc1c(N=Nc2ccc([N+](=O)[O-])cc2)c(S(=O)(=O)O)cc2cc(S(=O)(=O)O)c(N=Nc3ccc(Sc4ccc(N=Nc5ccc(O)cc5)cc4)cc3)c(O)c12.[Na+]` [compound 79723] was tested. Which “% Response” value did it give?
**A.** Its value is 83 ± 3.2%.

**Q.** For `Nc1c(N=Nc2ccc([N+](=O)[O-])cc2)c(S(=O)(=O)O)cc2cc(S(=O)(=O)O)c(N=Nc3ccc(-c4ccc(N=Nc5c(S(=O)(=O)O)cc6cc(S(=O)(=O)O)c(N=Nc7ccc([N+](=O)[O-])cc7)c(N)c6c5O)cc4)cc3)c(O)c12.[Na+]` [compound 65869], which IC50 [1] is on record?
**A.** The IC50 was 22.7 µM.

**Q.** And the “% Response” value?
**A.** Its value is 46 ± 6.7%.

**Q.** For `CC(=O)NS(=O)(=O)c1ccc(NC(=O)c2ccccc2C(=O)O)cc1` [compound 4368], which “% Response” value is on record?
**A.** The value was 99 ± 2.8%.

**Q.** How did the “% Response” value turn out when `O=S(=O)(c1ccc(NC(C(O)C(O)C(O)C(O)CO)S(=O)(=O)O)cc1)c1ccc(NC(C(O)C(O)C(O)C(O)CO)S(=O)(=O)O)cc1` (centres unmarked) [compound 36701] was run?
**A.** Its value is 98 ± 3.7%.

**Q.** `Nc1ccc2cc(S(=O)(=O)[O-])c(N=Nc3ccc(-c4ccc(N=Nc5c(S(=O)(=O)[O-])cc6cc(S(=O)(=O)[O-])c(N=Nc7cccc([N+](=O)[O-])c7)c(N)c6c5O)cc4)cc3)c(O)c2c1.[Na+].[Na+].[Na+]` [compound 79744] was tested. Which IC50 [1] did it give?
**A.** The IC50 was 11.5 µM.

**Q.** And the “% Response” value?
**A.** The value was 35 ± 2.9%.

**Q.** `Cc1ccccc1N=C(N)Nc1ccccc1C.Nc1c(N=Nc2ccc([N+](=O)[O-])cc2)c(S(=O)(=O)O)cc2cc(S(=O)(=O)O)c(N=Nc3ccc(Sc4ccc(N=Nc5ccc(O)cc5)cc4)cc3)c(O)c12` [compound 80902] was tested. Which “% Response” value did it give?
**A.** The value was 73 ± 4.5%.

**Q.** With `O=C(/C=C/c1ccc(O)c(O)c1)NCC(=O)NC(Cc1ccccc1)C(=O)O` (centres unmarked) [compound 332542] as the compound, how does the “% Response” value read?
**A.** The value was 96 ± 3.7%.

**Q.** Which “% Response” value does the source give for `O=C(Nc1cc[c]([Sb](=[O])([OH])[OH])cc1)Nc1cc[c]([Sb](=[O])([OH])[OH])cc1` [compound 15408] here?
**A.** Its value is 100 ± 7.9%.

**Q.** Which results are given for `CN(C)C1C(=O)C(C(=O)NCNc2cccc(C(=O)O)c2C(=O)O)=C(O)C2(O)C(=O)C3=C(O)c4c(O)cccc4[C@](C)(O)[C@@H]3C[C@H]12` (some centres unmarked) [compound 43891]?
**A.** IC50 [1]: 13.9 µM; % Response: 32 ± 9.1%

**Q.** How did the IC50 [1] turn out when `Cc1cc(S(=O)(=O)O)ccc1N=c1ccc2c(-c3ccccc3C(=O)[O-])c3ccc(Nc4ccccc4C)cc3oc-2c1.[Na+]` [compound 11246] was run?
**A.** Its IC50 is 10.2 µM.

**Q.** What about the “% Response” value of the same compound?
**A.** The value was 42 ± 6.0%.

**Q.** How did the IC50 [1] turn out when `Cc1cc(C(O)(c2ccc(Nc3ccccc3)cc2)c2ccc(Nc3ccc(S(=O)(=O)O)cc3)cc2)ccc1N.[Na+]` (centres unmarked) [compound 5014] was run?
**A.** Its IC50 is 1.27 µM.

**Q.** And the “% Response” value?
**A.** Its value is 39 ± 4.3%.

**Q.** For `Nc1c(N=Nc2ccc([N+](=O)[O-])cc2)c(S(=O)(=O)O)cc2cc(S(=O)(=O)O)c(N=Nc3ccc(-c4ccc(O)cc4)cc3)c(O)c12.[Na+]` [compound 65560], which “% Response” value is on record?
**A.** The value was 56 ± 4.9%.

**Q.** With `CC(=O)NC(Cc1ccc(Cl)cc1)C(=O)NC(Cc1ccc(Cl)cc1)C(=O)NC(Cc1cccnc1)C(=O)NC(CO)C(=O)NC(Cc1ccc(O)cc1)C(=O)NC(CCCN=C(N)N)C(=O)NC(CC(C)C)C(=O)NC(CCCN=C(N)N)C(=O)N1CCCC1C(=O)NC(C)C(=O)O` (centres unmarked) [compound 373963] (Ac-[Phe(4-Cl)][Phe(4-Cl)][3Pal]SYRLRPA-OH; configuration not given here) as the compound, how does the “% Response” value read?
**A.** The value was 96 ± 2.5%.

**Q.** Which “% Response” value does the source give for `CC(=O)Nc1ccc(C=Cc2ccc(NC(=O)Nc3ccc(C=Cc4ccc(NC(C)=O)cc4S(=O)(=O)O)c(S(=O)(=O)O)c3)cc2S(=O)(=O)O)c(S(=O)(=O)O)c1` [compound 34928] here?
**A.** Its value is 51 ± 6.5%.

**Q.** With `Nc1c(N=Nc2ccc([N+](=O)[O-])cc2)c(S(=O)(=O)O)cc2cc(S(=O)(=O)O)c(N=Nc3ccc([N+](=O)[O-])cc3)c(O)c12.[Na+]` [compound 65544] as the compound, how does the “% Response” value read?
**A.** Its value is 76 ± 5.1%.

**Q.** Which results are given for `Cc1cc(N)ccc1N=Nc1ccc(-c2ccc(N=Nc3c(S(=O)(=O)O)cc4cc(S(=O)(=O)O)c(N=Nc5ccc([N+](=O)[O-])cc5)c(N)c4c3O)cc2)cc1.[Na+]` [compound 65851]?
**A.** IC50 [1]: 9.5 µM; % Response: 42 ± 3.5%

**Q.** What does the source list for `Cc1cc(-c2ccc(N=Nc3c(N)c(S(=O)(=O)O)cc4cc(S(=O)(=O)O)ccc34)c(C)c2)ccc1N=Nc1cc(S(=O)(=O)O)c2ccccc2c1N` [compound 7815]?
**A.** IC50 [1]: 13.4 µM; % Response: 32 ± 5.5%

**Q.** With `Cc1ccc(C)c(N=Nc2c(S(=O)(=O)O)cc3cc(NC(=O)Nc4ccc5c(O)c(N=Nc6ccc7cc(S(=O)(=O)O)ccc7c6)c(S(=O)(=O)O)cc5c4)ccc3c2O)c1.[Na+]` [compound 65576] as the compound, how does the IC50 [1] read?
**A.** The IC50 was 15.5 µM.

**Q.** And the “% Response” value?
**A.** The value was 35 ± 5.8%.

**Q.** For `Nc1c(N=Nc2ccc([N+](=O)[O-])cc2)c(S(=O)(=O)O)cc2cc(S(=O)(=O)O)c(N=Nc3ccc(-c4ccc(N=Nc5ccc(O)cc5)cc4)cc3)c(O)c12.[Na+]` [compound 7234], which IC50 [1] is on record?
**A.** Its IC50 is 7.02 µM.

**Q.** And the “% Response” value?
**A.** Its value is 49 ± 6.1%.

**Q.** `Nc1c(S(=O)(=O)[O-])cc2cc(S(=O)(=O)[O-])ccc2c1N=Nc1ccc(-c2ccc(N=Nc3c(N)c(S(=O)(=O)[O-])cc4cc(S(=O)(=O)[O-])ccc34)c(S(=O)(=O)[O-])c2)cc1.[Na+].[Na+].[Na+].[Na+].[Na+]` [compound 11243] was tested. Which IC50 [1] did it give?
**A.** The IC50 was 12.6 µM.

**Q.** What about the “% Response” value of the same compound?
**A.** Its value is 49 ± 6.1%.

**Q.** `Nc1cccc(N=Nc2c(S(=O)(=O)[O-])cc3cc(Nc4ccc5c(O)c(N=Nc6cccc(N)c6)c(S(=O)(=O)[O-])cc5c4)ccc3c2O)c1.[Na+].[Na+]` [compound 58055] was tested. Which “% Response” value did it give?
**A.** Its value is 89 ± 3.9%.

**Q.** `O=C(N/N=C/c1ccc(O)c(S(=O)(=O)O)c1)C(=O)N/N=C/c1ccc(O)c(S(=O)(=O)O)c1.[Na+]` [compound 55736] was tested. Which “% Response” value did it give?
**A.** The value was 95 ± 3.9%.

**Q.** Which “% ATX Acitivity (10 μM)” value (10 μM compound, FS-3 substrate) does the source give for `O=C1C(Cl)=C(Nc2ccc(C(=O)Nc3ccc4cc(S(=O)(=O)O)cc(S(=O)(=O)O)c4c3)cc2)C(=O)C(Cl)=C1Nc1ccc(C(=O)Nc2ccc3cc(S(=O)(=O)O)cc(S(=O)(=O)O)c3c2)cc1` [NSC 12859] here?
**A.** Its value is 27 ± 2.8%.

**Q.** And the IC50 (Table 5, FS-3 substrate)?
**A.** The IC50 was 0.805 µM.
